Records with an inconclusive call do not appear.
System: M. tuberculosis H37Rv growth inhibition, 7H9 media
Experiment: M. tuberculosis growth inhibition, HTS (AID 449762);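 note: bacterial growth assessed after seven days of incubation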
Conditions: for IC90: measured here: IC90 growth inhibition

Compound `CCCCn1nc(C(=O)N[C@@H](CCSC)c2nc3ccccc3[nH]2)c2ccccc2c1=O` has an IC50 of 53 µM and an IC90 of 78.5 µM.

`CC1(C)Cc2c(cnn2-c2ccccc2)-c2c1c1ccccc1n2CC(O)CCl` (stereo unspecified) showed an IC50 of 88.2 µM and an IC90 of over 100 µM.

Work on `Cc1noc(C)c1COc1ccc(C(=O)OCC(=O)NC23CC4CC(CC(C4)C2)C3)cc1` yielded an IC50 of 8.33 µM and an IC90 of 24.5 µM.

With `CCOC(=O)C1=C(C)NC(SCC(=O)Nc2nc(C)cs2)=C(C#N)C1c1cccs1` (stereo unspecified) the IC50 was 34.4 µM and the IC90 was 48.7 µM.

Work on `Cc1cc(C)c2oc(-c3ccc(C)c(NC(=S)NC(=O)/C=C/c4ccco4)c3)nc2c1` yielded an IC50 of 59.8 µM and an IC90 of over 100 µM.

With `O=C(O)c1ccc(N2C(=O)/C(=C/c3ccc(-c4ccc([N+](=O)[O-])cc4)o3)C=C2c2ccccc2)cc1` the IC50 was 17.2 µM and the IC90 was 40.2 µM.

In the case of `CC(C)NC(=O)c1sc(=S)n2c1[nH]c(=O)c1ccc(C(=O)NCCc3ccc(Cl)cc3)cc12`, the IC50 is reported as 0.3 µM and the IC90 is reported as 0.49 µM.

`c1ccc(CCN2CCN(c3ncnc4c3cnn4-c3ccccc3)CC2)cc1` gave an IC50 of 21.3 µM and an IC90 of 43 µM.

For `Oc1ccc(N=Nc2n[nH]c(-c3ccc(Cl)cc3)n2)cc1`, the IC50 was 11.8 µM and the IC90 was 59 µM.

With `Cc1[nH][nH]c(=O)c1C(c1ccc(-c2ccc(Cl)c(Cl)c2)o1)c1c(C)[nH][nH]c1=O` the IC50 was 53.4 µM and the IC90 was 85.6 µM.

In the case of `O=C(c1ccc(-c2cccc(C(F)(F)F)c2)o1)N1CCN(c2ccccc2O)CC1`, the IC50 is reported as 18.5 µM and the IC90 is reported as 26.1 µM.

With `Cc1cc(C)n(-c2ccc(C(=O)Oc3ccc4c(c3)OCO4)cc2)n1` the IC50 was 4.02 µM and the IC90 was 13.3 µM.

`O=C(OCCN1C(=O)c2ccccc2C1=O)c1cc2ccccc2o1` showed an IC50 of 12.2 µM and an IC90 of over 25 µM.

Compound `CN(C(=S)NC(=O)c1ccc(Cl)cc1)C1CCCCC1` has an IC50 of 3.1 µM and an IC90 of 13.7 µM.

With `Cc1ccc(NC(=O)c2ccc(CSc3nnc(C)s3)cc2)c(C)c1` the IC50 was 17.4 µM and the IC90 was over 25 µM.

For `COc1cc2c(cc1NC(=O)CN1C(=O)NC3(CCc4ccccc43)C1=O)oc1ccccc12` (stereo unspecified), the IC50 was 29.5 µM and the IC90 was over 100 µM.

Work on `Clc1ccc(Nc2ccc(-n3ccnc3)nn2)cc1Cl` yielded an IC50 of 18.9 µM and an IC90 of 25.3 µM.

`NC1=NC[C@H](Cc2ccc(O)cc2)N1CCc1cccc2ccccc12` gave an IC50 of 21.6 µM and an IC90 of 24.1 µM.

In the case of `COc1ccc(/C=N/Nc2nncn2N)cc1Br`, the IC50 is reported as 10.8 µM and the IC90 is reported as 16.3 µM.

Work on `CCOC(=O)c1ccccc1NC(=O)COc1coc(CN2CCc3ccccc32)cc1=O` yielded an IC50 of 17.9 µM and an IC90 of 38.2 µM.

`COc1ccccc1C1c2ccc3ccccc3c2Oc2ncn(CCN(C)C)c(=N)c21` (stereo unspecified) gave an IC50 of 22.3 µM and an IC90 of 24.9 µM.

`O=Cc1ccc(-c2ccc(Cl)cc2Cl)[nH]1` was tested, and the IC90 was over 100 µM.

With `COc1cc(-c2ccc3oc(-c4ccsc4)cc(=O)c3c2)cc(OC)c1OC` the IC50 was 2.07 µM and the IC90 was 17.6 µM.

For `O=C(OCC(=O)N1CCC(c2ccccc2)=N1)c1ccc(Cl)s1`, the IC50 was 21.5 µM and the IC90 was over 25 µM.

`C/C(=N\NC(=S)NCC(C)(C)C)c1cc(F)cc(F)c1O` showed an IC50 of 1.22 µM and an IC90 of 8.86 µM.

`CCCC1CCC(C(=O)Nn2c(C)nc3ccccc3c2=O)CC1` (stereo unspecified) showed an IC50 of 50.1 µM and an IC90 of over 100 µM.

Compound `CC(Oc1cc2oc(=O)c3c(c2cc1Cl)CCCC3)C(=O)NCc1ccccn1` (stereo unspecified) has an IC50 of 7.47 µM and an IC90 of over 100 µM.

`COc1cc(OC)nc(Oc2ccccc2C(=O)Oc2ccc(Cl)cc2)n1` was tested, and the IC50 was 68.5 µM and the IC90 was over 100 µM.

For `CCCCS(=O)(=O)/C=C\C=C/S(=O)(=O)CCCC`, the IC50 was 1.35 µM and the IC90 was 1.96 µM.

`Cc1csc(NC(=S)Nc2cccc(Cl)c2)n1` was tested, and the IC50 was 2.76 µM and the IC90 was 6.01 µM.

With `CCOc1ccc(-c2csc(/C(C#N)=C\c3ccc(O)c([N+](=O)[O-])c3)n2)cc1` the IC50 was 11.1 µM and the IC90 was over 100 µM.

In the case of `CCOC(=O)COc1cc(O)c2c(=O)cc(-c3ccccc3)oc2c1`, the IC50 is reported as 0.68 µM and the IC90 is reported as 2.33 µM.

`O=C(OCc1ccc([N+](=O)[O-])cc1)c1cc2ccccc2oc1=O` gave an IC50 of 7.82 µM and an IC90 of 23.6 µM.

Work on `Cc1cncn1CCc1nc2c3ccccc3nc(SCC(=O)Nc3cccc(Cl)c3)n2n1` yielded an IC50 of 20.9 µM and an IC90 of 27.9 µM.

Compound `O=c1c(O)c(-c2cccs2)oc2ccccc12` has an IC50 of 12 µM and an IC90 of over 100 µM.

`O[C@@H](c1cc(C(F)(F)F)nc2c(C(F)(F)F)cccc12)[C@H]1CCCCN1` gave an IC50 of 18.2 µM and an IC90 of 24.5 µM.

Compound `COc1ccc(NCc2nc3ccccc3n2CCOc2ccccc2)cc1` has an IC50 of 44.8 µM and an IC90 of 50.6 µM.

`N#Cc1nc(-c2ccc(OCc3ccccc3)cc2)oc1NCCCn1ccnc1` gave an IC50 of 26.7 µM and an IC90 of 35.5 µM.

With `CCC(=O)Nc1nc2ccccc2n1Cc1ccc(Cl)cc1` the IC50 was under 0.2 µM and the IC90 was 4.92 µM.

With `CCN(CC(=O)NCc1cccs1)C(=O)c1ccc([N+](=O)[O-])o1` the IC50 was 19 µM and the IC90 was 58.3 µM.

`Cc1ccc(C(=O)N/C(=C/c2ccc(-c3cc(C(F)(F)F)ccc3Cl)o2)C(=O)NCc2cccnc2)cc1` was tested, and the IC50 was 37.8 µM and the IC90 was over 100 µM.

For `Cc1ccc(-n2nnc3c(=O)oc4ccccc4c32)cc1`, the IC50 was under 0.2 µM and the IC90 was 19.9 µM.

For `CC1CC(C)(C)Nc2ccc(OC(=O)c3ccco3)cc21` (stereo unspecified), the IC50 was 6.31 µM and the IC90 was 16.4 µM.

`O=C(NC1CCCC(C(F)(F)F)C1)c1ccc([N+](=O)[O-])o1` (stereo unspecified) was tested, and the IC50 was 2.71 µM and the IC90 was 12.3 µM.

Compound `C=CCS/C(N)=N\N=C\c1c(O)ccc2ccccc12` has an IC50 of 12.2 µM and an IC90 of 48.6 µM.

`O=[N+]([O-])c1ccc(-n2cnc3ccccc32)c([N+](=O)[O-])c1` gave an IC50 of 1.61 µM and an IC90 of 5.96 µM.

`CCc1ccc2c(c1)/C(=C/C(=O)c1cccs1)C(=O)N2` showed an IC50 of 1.06 µM and an IC90 of 3.19 µM.

`O=C(N/N=C\c1ccc[nH]1)c1cncc(Br)c1` showed an IC50 of 25.2 µM and an IC90 of 49 µM.

For `COc1ccc(-c2cc3nc(CCl)[nH]c(=O)c3s2)cc1`, the IC50 was 0.88 µM and the IC90 was 14.5 µM.

`CCN(CCNCC(O)COc1ccccc1C(C)C)c1cccc(C)c1` (stereo unspecified) was tested, and the IC50 was 21.1 µM and the IC90 was 28.1 µM.

`CCCCNc1c(-c2ccc(SC3CCCCC3)c(OC)c2)nc2ccc(C)cn12` gave an IC50 of 11.4 µM and an IC90 of 12.8 µM.

`O=C(C[C@@H]1C/C=C\C[C@H](NC(=O)OCC2c3ccccc3-c3ccccc32)C(=O)OC[C@H]2CCCN2C1=O)N[C@@H](CO)Cc1ccccc1` showed an IC50 of 16.1 µM and an IC90 of 28.2 µM.

Work on `Cn1cc(C(=O)c2ccc(Cl)cc2)cc1-c1nc2ccccc2n1C` yielded an IC50 of 13.4 µM and an IC90 of 27.1 µM.

`S=C(NCc1ccc(Cl)cc1)NC12CC3CC(CC(C3)C1)C2` gave an IC50 of 0.7 µM and an IC90 of 11.6 µM.

`Cc1ccc(-c2ccnc(=S)[nH]2)cc1` gave an IC50 of 44.9 µM and an IC90 of over 100 µM.

`CN(C)CCCN(C(=O)c1cc(-c2cccs2)nc2ccccc12)c1nc2ccc(F)cc2s1` gave an IC50 of 41 µM and an IC90 of 55.5 µM.

For `c1ccc(CSc2ccc(-c3ccccn3)nn2)cc1`, the IC50 was 23.4 µM and the IC90 was 26.9 µM.

`O=C(Sc1nnc(-c2ccccc2)o1)N1c2ccccc2Sc2ccccc21` gave an IC90 of over 100 µM.

`NC(=O)CSc1nnc(COc2ccc3ccccc3c2)o1` gave an IC50 of 1.75 µM and an IC90 of over 100 µM.

Work on `Cc1ccc(NC(=O)Cn2ccsc2=N)c([N+](=O)[O-])c1` yielded an IC50 of 5.48 µM and an IC90 of 12.7 µM.

Compound `CC(C)(C)C(=O)/C(=C\c1cccc([N+](=O)[O-])c1)n1cncn1` has an IC50 of 1.51 µM and an IC90 of 1.72 µM.

Compound `C=CCOc1ccc(C2=NOC(C(=O)Nc3ccc4c(c3)OCCO4)C2)cc1` (stereo unspecified) has an IC50 of 12.8 µM and an IC90 of 23.1 µM.

`Cn1cc(NC(=O)CCl)cn1` was tested, and the IC50 was 4.36 µM and the IC90 was 8.63 µM.

`O=C(Nc1ncc(Cc2ccccc2Cl)s1)C1=NCCN1` was tested, and the IC50 was 0.43 µM and the IC90 was 92.9 µM.

— PubChem BioAssay AID449762 (Southern Research Specialized Biocontainment Screening …, 2010)
